Measurements: US9580487B2, “Method of treating stomach or bowel-related disorders by administering glucagon-like-peptide-2 (GLP-2) analogues” (Zealand Pharma A/S, priority 2005, dated 2017)
“Also recorded” adds a separate entry of the source. No end group written: not given here.

How the values were obtained:
[1] = Chemical stability testing: incubation in HCl, NaOH, H2O2 or NH4HCO3 at 40° C., remaining purity by RP-HPLC; type: physicochemical; settings: 40° C.; for Purity H2O2 0.5% 3 days / Purity HCl 0.1M 12 days / Purity NH4HCO3 0.1M 6 days: 2 mg/ml, relative to the purity at T=0; for Purity H2O2 0.5% 3 days / Purity HCl 0.1M 12 days: RP-HPLC; for Purity NH4HCO3 0.1M 6 days: pH 8, RP-HPLC; for Stability during acid hydrolysis (in words): 0.1 M HCl, 12 days
Description: The GLP-2 analogues were dissolved in purified water and subsequently diluted in solutions containing HCl, NaOH, H2O2 or NH4HCO3. The solutions were incubated at 40° C. to produce hydrolysis, deamidation and oxidation products. The samples were analyzed by RP-HPLC and the percentage of remaining intact compound was determined as a measure for the relative stability. The major degradation products were tentatively identified by LC-MS.
The GLP-2 analogues tested and the reference Gly^2-GLP-2, ZP1559 (SEQ ID NO:54), were dissolved in water and subsequently diluted into solutions containing HCl, NaOH, H2O2 or NH4HCO3. The samples were incubated at 40° C. to generate hydrolysis, deamidation and oxidation products, respectively. The compounds were analysed by RP-HPLC for purity of the original main peak and by LC-MS for confirmation of the identity by mass of the main peak and major degradation products.
The GLP-2 analogues were first dissolved in MQW to a concentration of 4 mg/ml and then further diluted in the stress solutions at a 1:1 ratio (e.g. 125 μl plus 125 μl). The final concentrations were 2 mg/ml of the GLP-2 analogues for stress conditions with 0.1 M HCl, 0.01M NaOH, 0.1 M NH4HCO3 and 0.5% H2O2, respectively.
The solutions were incubated at 40° C. in the dark and then diluted in Eluent A to a concentration of 0.5 mg/ml (addition of 750 μl) prior to analyses by RP-HPLC and by LC-MS.
The RP-HPLC analyses were performed on an Agilent Series 1100 HPLC system under control of the ChemStation (Revision A.08.03 [847]) software from Agilent Technologies, Inc. The raw data and the results of the peak integration were deposited on the ChemStore C/S server by the use of Agilent Technologies Revision B01.03 software.
The results are shown in Table 9 as the compound purity measured by RP-HPLC after incubation under stress conditions. This purity is a measure for the remaining intact compound after incubation in stress solutions, relative to the purity measured a T=0.

male C57BL mice [2] = assay: Dose-response effect on intestinal growth (SI mass, SI-Colon Sensitivity Index, colon and stomach mass); type: in vivo; settings: 5-405 nmol/kg s.c. b.i.d. for three days
Description: Values are means±SEM. *: P<0.05 relative to the equimolar dose of [Gly2]GLP-2 (SEQ ID NO:54).
FIG. 2 is a set of graphs showing full dose-response data of four small intestine selective compounds (compound nos. 1846 (SEQ ID NO:34), 1855 (SEQ ID NO:43), 1848 (SEQ ID NO:36), 1858 (SEQ ID NO:46)) on the Small Intestine (SI)-to-Colon Sensitivity Index mice relative to the non-selective reference compound [Gly2]GLP-2 (SEQ ID NO:54). Compounds were administered by subcutaneous injection b.i.d. for three days in C57BL mice at the following doses: 0 (vehicle), 5, 15, 45, 135, 405 nmol/kg (n=6/dose group). Responses at each dose level were compared with responses obtained at the same dose level in pair-treated mice treated with the non-selective reference compound [Gly2]GLP-2 (SEQ ID NO:54). The SI-Colon Sensitivity Index was calculated as SI-mass relative to colon mass and the Sensitivity Index at each dose level was normalized to the response observed with the non-selective reference compound [Gly2]GLP-2 (SEQ ID NO:54). […] Values are means±SEM. *: P<0.05 relative to the equimolar dose of [Gly2]GLP-2.
FIG. 4 is a set of graphs showing full dose-response data of three small intestine selective compounds (compound nos. 1857 (SEQ ID NO:45), 1820 (SEQ ID NO:10), and 1849 (SEQ ID NO:37)) on the Small Intestine (SI)-to-Colon Sensitivity Index mice relative to the non-selective reference compound [Gly2]GLP-2 (SEQ ID NO:54). Compounds were administered by subcutaneous injection b.i.d. for three days in C57BL mice at the following doses: 0 (vehicle), 5, 15, 45, 135, 405 nmol/kg (n=6/dose group). Responses at each dose level were compared with responses obtained at the same dose level in pair-treated mice treated with the non-selective reference compound [Gly2]GLP-2 (SEQ ID NO:54). The SI-Colon Sensitivity Index was calculated as SI-mass relative to colon mass and the Sensitivity Index at each dose level was normalized to the response observed with the non-selective reference compound [Gly2]GLP-2 (SEQ ID NO:54). […] Values are means±SEM. *: P<0.05 relative to the equimolar dose of [Gly2]GLP-2 (SEQ ID NO:54).
Compounds were administered by subcutaneous injection b.i.d. for three days in C57BL mice at the following doses: 0 (vehicle), 5, 15, 45, 135, 405 nmol/kg (n=6/dose group). […] Values are means±SEM. *: P<0.05 relative to the vehicle.
The dose-response effect of 1820 (SEQ ID NO:10), 1855 (SEQ ID NO:43), ZP1846 (SEQ ID NO:34), 1858 (SEQ ID NO:46), 1849 (SEQ ID NO:37), 1848 (SEQ ID NO:36), and 1857 (SEQ ID NO:45) on small intestinal mass was determined in male C57BL mice. Individual groups (n=6) of mice were given 5, 15, 45, 135 or 405 nmol/kg of each compound, s.c, twice daily for three consecutive days. For comparison purposes other groups of animals were given either equimolar doses of [Gly2]GLP-2 (SEQ ID NO:54) or vehicle (phosphate buffered saline, pH 7.4) in the same dosing regimen. Twenty-four hours after the last dose of compound had been given the mice were sacrificed and the small intestine (from the pylorus to the cecum emptied and weighed to determine the effect on small intestinal mass.

male C57BL mice [3] = assay: Screening for intestinal growth effects (small intestine and colon mass relative to body weight, small intestine-colon sensitivity index); type: in vivo; settings: for Small intestine mass relative to [Gly2]GLP-2 / Preferential growth of small intestine versus colon (small intestine-colon sensitivity): 30 nmol/kg s.c. twice daily, ten days; for Small intestine mass relative to [Gly2]GLP-2: equimolar [Gly2]GLP-2; for Preferential growth of small intestine versus colon (small intestine-colon sensitivity): relative to [Gly2]GLP-2; for colon mass relative to body weight, % [Gly2]GLP-2 / small intestine-colon sensitivity index, (SI/Colon)X/(SI/Colon)[Gly2]GLP-2 %: male C57BL mice, 30 nmol/kg s.c. twice daily for ten days; for small intestine-colon sensitivity index, (SI/Colon)X/(SI/Colon)[Gly2]GLP-2 %: third value column
Description: The ability of the present compounds to stimulate intestinal growth was determined in male C57BL mice. Individual groups (n=6) of mice were given 30 nmol/kg of each compound, s.c, twice daily for ten consecutive days. For comparison purposes other groups of animals were given either an equimolar dose of [Gly2]GLP-2 (SEQ ID NO:54) or vehicle (phosphate buffered saline, pH 7.4) in the same dosing regimen. Twenty-four hours after the last dose of compound had been given the mice were sacrificed and the small intestine (from the pylorus to the cecum) and the colon (intestine distal to cecum) was emptied and weighed. To correct for slight difference in body weight (BW), the organ mass of the small intestine (SI) and colon were expressed relative to BW. The non-selective reference compound [Gly2]GLP-2 (SEQ ID NO:54) has been reported to stimulate gastrointestinal growth in both esophagus, stomach, small intestine and colon and to evaluate differences in growth pattern induced by compounds, the small intestine-colon sensitivity index of compound X was calculated as:
(SI/Colon)X/(SI/Colon)[Gly2]GLP-2%
Compounds with a small intestine-colon sensitivity greater than or equal to 1.05 were considered relatively selective for the small intestine (Table 15).
Compounds with a small intestine-colon sensitivity smaller than or equal to 0.95 were considered relatively selective for the colon (Table 15).

Substance	Purity H2O2 0.5% 3 days [1]	Purity HCl 0.1M 12 days [1]	Purity NH4HCO3 0.1M 6 days [1]	SI-Colon Sensitivity Index (SI mass relative to colon mass) relative to [Gly2]GLP-2 (male C57BL mice [2])	Small intestinal mass (SI-BW ratio), maximal response relative to [Gly2]GLP-2 (male C57BL mice [2])	Small intestine mass relative to [Gly2]GLP-2 (male C57BL mice [3])	Preferential growth of small intestine versus colon (small intestine-colon sensitivity) (male C57BL mice [3])	colon mass relative to body weight, % [Gly2]GLP-2 (male C57BL mice [3])	small intestine-colon sensitivity index, (SI/Colon)X/(SI/Colon)[Gly2]GLP-2 % (male C57BL mice [3])	Stability during acid hydrolysis (in words) [1]
[Gly2, Glu3, Ser8, Leu10, Ala11,16,24,28]hGLP-2(1-33)-(Lys)6-NH2 (HGEGSFSSELATILDALAARDFIAWLIATKITDKKKKKK-NH2) [Compound 1849]	78%	64%	86%	increased maximal small intestinal sensitivity relative to [Gly2]GLP-2; also recorded: increased selectivity for causing growth of the small intestine relative to the colon	maximal responses that were significantly greater than [Gly2]GLP-2	increased small intestine mass relative to [Gly2]GLP-2	supplementary increase in the weight of the small intestine without significant effecting the weight of the colon; also recorded: preferentially stimulating epithelial growth in the small intestine	95 % [Gly2]GLP-2	115 % [Gly2]GLP-2	
[Gly2, Glu3, Ser8, Leu10, Ala11,16,24,28]hGLP-2(1-33)-NH2 (HGEGSFSSELATILDALAARDFIAWLIATKITD-NH2) [Compound 1858]	60%	88%	91%		maximal responses that were significant greater than [Gly2]GLP-2	increased small intestine mass relative to [Gly2]GLP-2	supplementary increase in the weight of the small intestine without significant effecting the weight of the colon; also recorded: preferentially stimulating epithelial growth in the small intestine	96 % [Gly2]GLP-2	108 % [Gly2]GLP-2	tendency of slightly higher stability
[Gly2, Thr7, Ser8, Leu10, Ala11,24]hGLP-2(1-30)-K6-NH2 [Compound 1820]	62%	45%	85%	increased maximal small intestinal sensitivity relative to [Gly2]GLP-2	maximal responses that were significantly greater than [Gly2]GLP-2	increased small intestine mass relative to [Gly2]GLP-2	supplementary increase in the weight of the small intestine without significant effecting the weight of the colon; also recorded: preferentially stimulating epithelial growth in the small intestine			less stable than the remaining six candidates due to acid hydrolysis
[Gly2, Thr7, Ser8, Leu10, Ala11,24]hGLP-2(1-30)-NH2 (HGDGSFTSELATILDNLAARDFIAWLIQTK-NH2) [Compound 1834]	53%	38%	91%				without preferential growth in small intestine or colon			less stable than the remaining six candidates due to acid hydrolysis
[Thr7, Leu10, Ala11, Ala24]hGLP-2 (1-30)-NH2 [Compound 1843]							preferentially stimulating epithelial growth in the colon	130 % [Gly2]GLP-2	85 % [Gly2]GLP-2	
[Thr7, Ser8, Leu10, Lys11, Ala24]hGLP-2 (1-30)-NH2 [Compound 1842]							without preferential growth in small intestine or colon			
